From article PMC9551036, “A selective and orally bioavailable VHL-recruiting PROTAC achieves SMARCA2 degradation in vivo” (Nature Communications, 2022)
Values joined by “and” are separate entries in the source; they are usually repeats but may differ in a detail not shown here. Equal entries are not always repeated. Where two headings read alike, the source gives them in different places.

Key:
PBRM1BD5 = molecular target: T1, PBRM1BD5 (Homo sapiens, UniProt Q86U86); test: TR-FRET ternary complex affinity and cooperativity, PBRM1; type: binding; conditions: TR-FRET competition for PBRM1BD5, without VCB; mean ± SD; read-out: TR-FRET PBRM1BD EC50
T1 construct: GST (TEV site) (N); His6 (TEV site) (N, cleaved yes); made in house; host or cells: PBRM1^BD5: Escherichia coli BL21(DE3)
T1 sequence (Q86U86 645-766): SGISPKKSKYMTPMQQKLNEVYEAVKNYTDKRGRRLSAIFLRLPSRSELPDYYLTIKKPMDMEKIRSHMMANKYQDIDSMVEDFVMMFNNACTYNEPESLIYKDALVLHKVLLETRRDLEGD

[1] = molecular target: VCB: PROTAC: SMARCA2^BD ternary complex (Homo sapiens, UniProt P40337+P51531); test: TR-FRET ternary complex affinity and cooperativity, SMARCA2; type: binding; set-up: P51531-2, residues 1373-1493 with additional N-terminal SM residues; GST (TEV site) (N); His6 (TEV site) (N, cleaved yes); made in house; host or cells: SMARCA2^BD: Escherichia coli BL21(DE3)
Chain of VCB: PROTAC: SMARCA2^BD ternary complex (P51531 with tags, fused parts or gaps isoform P51531-2): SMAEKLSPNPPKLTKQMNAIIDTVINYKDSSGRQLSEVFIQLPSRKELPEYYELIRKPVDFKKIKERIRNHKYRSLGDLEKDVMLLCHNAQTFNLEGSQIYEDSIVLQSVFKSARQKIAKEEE
Chain of VCB: PROTAC: SMARCA2^BD ternary complex (P40337 54-213): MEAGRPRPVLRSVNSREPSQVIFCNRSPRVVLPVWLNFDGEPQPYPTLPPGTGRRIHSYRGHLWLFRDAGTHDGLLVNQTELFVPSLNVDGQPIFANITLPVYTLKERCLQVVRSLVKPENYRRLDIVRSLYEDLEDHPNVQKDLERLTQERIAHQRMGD
Chain of VCB: PROTAC: SMARCA2^BD ternary complex (Q15369 17-112 partner): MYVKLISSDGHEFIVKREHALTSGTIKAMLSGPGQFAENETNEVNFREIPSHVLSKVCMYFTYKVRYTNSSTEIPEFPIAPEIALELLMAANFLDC
Chain of VCB: PROTAC: SMARCA2^BD ternary complex (Q15370 1-104 partner): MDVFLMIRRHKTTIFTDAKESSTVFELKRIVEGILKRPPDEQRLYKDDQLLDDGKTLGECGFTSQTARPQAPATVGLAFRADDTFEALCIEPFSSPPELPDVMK

PBRM1 BD = molecular target: T2, PBRM1 BD (Homo sapiens, UniProt Q86U86); test: TR-FRET binary and ternary (PROTAC + VCB) affinity, PBRM1 bromodomain; type: binding; conditions: individual replicates
T2 construct: GST (TEV site) (N); made in house; host or cells: Escherichia coli BL21(DE3)

NCI-H1568 cells = test: Cell viability assay (CellTiter Glo) in NCI-H1568; type: cell-based, human; conditions: for EC50: read-out: EC50 cell proliferation (CellTiter Glo); for IC50: NCI-H1568, (18h), CellTiter Glo, individual replicates, read-out: NCI-H1568 (18h) CTG
Method: 500–2000 cells were seeded in white, clear bottom 96-well plates (Corning or Perkin Elmer) in 180–200 µl medium per well. The next day, compounds were added using a digital dispenser and a T0 sample was measured for reference. […], and viability (luminescence) was measured using CellTiter Glo or CellTiter Glo 2.0 (Promega) according to manufacturer’s instructions after equilibrating cells and reagents at room temperature and 10–20 min incubation time while shaking.

SMARCA2 [2] = molecular target: T3, SMARCA2 (Homo sapiens, UniProt P51531); test: SMARCA2 capillary electrophoresis protein assay in RKO cells; type: cell-based; set-up: endogenous in cells; host or cells: RKO, NCI-H1568, A549, HCT116, LU99, HCC-364, HCT-15, HCC4006, SK-N-AS; conditions: for DC50 / Dmax / SMARCA2 Dmax: mean ± SD; for Dmax: RKO
T3 sequence (P51531 whole entry): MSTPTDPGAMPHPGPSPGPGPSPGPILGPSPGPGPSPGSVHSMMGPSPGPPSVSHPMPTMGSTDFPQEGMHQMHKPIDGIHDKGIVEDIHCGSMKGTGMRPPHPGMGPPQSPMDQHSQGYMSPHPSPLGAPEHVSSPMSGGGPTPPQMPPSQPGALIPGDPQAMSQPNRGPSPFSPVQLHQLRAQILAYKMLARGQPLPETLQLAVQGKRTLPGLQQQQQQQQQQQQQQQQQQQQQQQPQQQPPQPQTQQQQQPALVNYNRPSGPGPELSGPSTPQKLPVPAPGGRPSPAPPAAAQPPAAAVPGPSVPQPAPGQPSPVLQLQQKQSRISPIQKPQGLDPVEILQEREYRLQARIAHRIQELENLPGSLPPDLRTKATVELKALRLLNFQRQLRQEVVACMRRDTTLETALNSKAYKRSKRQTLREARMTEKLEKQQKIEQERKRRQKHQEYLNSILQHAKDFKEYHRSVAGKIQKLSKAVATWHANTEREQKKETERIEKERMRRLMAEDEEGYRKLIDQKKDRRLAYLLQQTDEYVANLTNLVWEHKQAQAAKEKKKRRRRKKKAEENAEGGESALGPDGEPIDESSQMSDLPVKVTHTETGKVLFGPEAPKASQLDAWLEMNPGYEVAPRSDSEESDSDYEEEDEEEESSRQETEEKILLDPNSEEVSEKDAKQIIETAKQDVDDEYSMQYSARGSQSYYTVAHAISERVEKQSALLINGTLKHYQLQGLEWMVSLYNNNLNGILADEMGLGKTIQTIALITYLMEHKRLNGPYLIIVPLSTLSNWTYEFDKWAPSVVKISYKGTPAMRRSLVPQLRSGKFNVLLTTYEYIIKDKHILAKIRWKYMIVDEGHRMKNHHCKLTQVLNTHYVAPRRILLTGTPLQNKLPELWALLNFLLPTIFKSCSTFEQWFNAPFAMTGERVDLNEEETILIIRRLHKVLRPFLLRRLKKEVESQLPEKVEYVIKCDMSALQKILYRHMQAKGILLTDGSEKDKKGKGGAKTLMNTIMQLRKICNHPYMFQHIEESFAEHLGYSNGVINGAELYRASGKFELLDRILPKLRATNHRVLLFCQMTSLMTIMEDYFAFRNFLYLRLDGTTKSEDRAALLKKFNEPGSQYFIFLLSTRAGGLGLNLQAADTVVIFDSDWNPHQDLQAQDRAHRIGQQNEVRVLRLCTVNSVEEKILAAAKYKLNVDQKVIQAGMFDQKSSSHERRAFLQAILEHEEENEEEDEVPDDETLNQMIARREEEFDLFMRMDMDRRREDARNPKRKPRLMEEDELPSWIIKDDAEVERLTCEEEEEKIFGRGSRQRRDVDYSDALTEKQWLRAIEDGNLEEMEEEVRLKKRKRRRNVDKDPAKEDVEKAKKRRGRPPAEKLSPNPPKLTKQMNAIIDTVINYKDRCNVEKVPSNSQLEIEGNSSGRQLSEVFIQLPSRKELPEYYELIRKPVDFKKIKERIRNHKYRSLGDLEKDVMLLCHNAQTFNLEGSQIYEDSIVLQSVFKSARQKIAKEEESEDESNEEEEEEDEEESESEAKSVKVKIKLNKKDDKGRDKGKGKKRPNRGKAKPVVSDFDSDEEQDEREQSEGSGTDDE
Method: 130,000–200,000 cells were seeded in 24-well plates and incubated until settled down or overnight. Compounds were dissolved in DMSO and added to cells in indicated concentrations using a digital dispenser following an optional media change. […] For SMARCA2/4 half-life determination, 150,000 or 200,000 cells were seeded in 24-well plates. […] For SMARCA2/4 re-synthesis measurements, 200,000 cells were seeded in 24-well plates. […] Medium was removed, cells were washed with PBS and lysed with 80 µl Lysis Buffer (MSD Tris Lysis Buffer (#R60TX-2) + Halt Inhibitor Cocktail (100x) + Benzonase 0.5 µL/ml). Samples were frozen at −80 °C and thawed at room temperature before use. Samples were transferred to a V-bottom plate and insoluble debris was pelleted by centrifugation for 5 min at maximum speed. The supernatant was transferred to a fresh plate. Master Mix and Ladder were prepared according to manufacturer’s instructions for 12–230 kDa Wes Separation Module, 8 × 25 capillary cartridges, Protein Simple #SM-W004 with Anti-Rabbit Detection Module for Wes, Peggy Sue or Sally Sue, Protein Simple #DM-001. 4.8 µl lysate were mixed with 1.2 µl Master Mix to achieve a protein concentration of ~0.5 µg/µl. […] Wes plates were prepared and run according to manufacturer’s instructions. Proteins were quantified with accompanying Compass Software. SMARCA2/4 protein levels were normalised to GAPDH. […] Where applicable, curves were fitted using a 4-parametric logistic model.

SMARCA2 [3] = molecular target: T3, SMARCA2; test: Imaging-based SMARCA2 protein assay in RKO cells; type: cell-based; set-up: endogenous in cells; host or cells: RKO, NCI-H1568, A549, HCT116, LU99, HCC-364, HCT-15, HCC4006, SK-N-AS; conditions: individual replicates
Method: 1250 cells per well in 60 µl medium were plated in flat bottom, poly-lysin coated 384-well plates (CellCarrier Ultra, Perkin Elmer). The next day, test compounds (10 µl of serial dilutions) and DMSO controls were diluted in DMEM medium such that the final DMSO content was <1% or were added using an ultrasound dispensing system. 4 wells were reserved for a background measurement. […] After aspirating the fixing solution, the cells were washed once with 25 µl PBS. 25 µl of blocking buffer (10% goat serum in PBS) was added and cells were incubated for 30 min, then washed once with PBS. […] Cells were again washed once with PBS. […] The cell layer was then washed once with 25 µl PBS, the wells were filled with 25 µl PBS and the plates were sealed with an adhesive sheet. They were then imaged on the Opera Phoenix (mean intensity in the nucleus). […] EC50 values were computed using a 4-parametric logistic model.

[4] = PROTAC + VCB, individual replicates, read-out: Ternary SMARCA2 BD EC50 (PROTAC + VCB)
[5] = TR-FRET competition for SMARCA2BD, + VCB, mean ± SD, read-out: TR-FRET Ternary SMARCA2BD EC50 (PROTAC + VCB)
[6] = PROTAC + VCB, read-out: Ternary PBRM1 BD EC50 (PROTAC + VCB)
[7] = binary, PROTAC alone, read-out: PBRM1 EC50
[8] = 4h, read-out: RKO (4h) SMARCA2 DC50
[9] = 18h, read-out: RKO (18h) SMARCA2 DC50

Row | SMILES | EC50 (PBRM1BD5) | EC50 [1, 4] | EC50 [1, 5] | EC50 (PBRM1 BD; [6]) | EC50 (PBRM1 BD; [7]) | EC50 (NCI-H1568 cells; NCI-H1568 ([…]), mean ± SD) | IC50 (NCI-H1568 cells) | DC50 (SMARCA2 [2]; RKO (4 h)) | DC50 (SMARCA2 [2]; RKO (18 h)) | DC50 (SMARCA2 [3]; [8]) | EC50 (NCI-H1568 cells; Homo sapiens, NCI-H1568, […]) | DC50 (SMARCA2 [3]; [9]) | Dmax (SMARCA2 [2]; RKO (4 h)) | Dmax (SMARCA2 [2]; RKO (18 h)) | selectivity for SMARCA2 over SMARCA4 degradation (SMARCA2 [2]; Supplementary Data 2) | SMARCA2 Dmax (SMARCA2 [2]; RKO (4 h)) | SMARCA2 Dmax (SMARCA2 [2]; RKO (18 h))
1 | Cc1ncsc1-c1ccc(CNC(=O)[C@@H]2C[C@@H](O)CN2C(=O)[C@@H](NC(=O)C2(F)CC2)C(C)(C)C)c(OCCN2CCC(c3ccc4c(c3)n(C3CCCC3)c3nc(=O)c5c(Br)cccc5n43)CC2)c1 [compound 20] | 38 ± 4 nM | 140 nM and 137 nM and 122 nM and 109 nM and 217 nM | 141 ± 42 nM | 30.2 nM and 37.8 nM and 37.5 nM | 35.1 nM and 43.6 nM and 36.5 nM and 35.9 nM | 74 ± 52 nM | 80.9 nM and 35.3 nM and 140 nM | > 25000 nM | > 25000 nM | > 25000 nM | – | – | – | – | – | – | –
2 | O=c1nc2n(C3CCCC3)c3ccccc3n2c2cccc(Br)c12 [compound 1] | 134 ± 28 nM | 381 nM and 365 nM and 425 nM | 389 ± 31 nM | 129 nM and 124 nM and 140 nM | 124 nM and 116 nM and 167 nM | – | – | > 25000 nM | > 25000 nM | > 25000 nM | 1100 nM | > 25000 nM | – | – | – | – | –
3 | CN1CCN(c2nc(=O)c3c(Br)cccc3o2)CC1 [compound 15] | > 10000 nM | > 10000 nM | – | > 10000 nM | > 10000 nM | > 10000 nM | > 10000 nM | > 25000 nM | > 25000 nM | > 25000 nM | – | > 25000 nM | – | – | – | – | –
4 | Cc1ncsc1-c1ccc([C@H](COC(C)CN2CCC(c3ccc4c(c3)n(C3CCCC3)c3nc(=O)c5c(Br)cccc5n43)CC2)NC(=O)[C@@H]2C[C@@H](O)CN2C(=O)[C@@H](NC(=O)C2(F)CC2)C(C)(C)C)cc1 (stereo partly drawn) [compound 9] | 34 ± 4 nM | 20.6 nM and 18 nM and 20.2 nM and 22.8 nM and 25.6 nM and 25.2 nM and 34 nM and 21.7 nM and 14.5 nM and 19.9 nM and 18.7 nM | 21 ± 5 nM | 6.04 nM and 5.66 nM and 5.49 nM and 5.75 nM and 6.81 nM and 13.2 nM and 4.82 nM | 31.7 nM and 35 nM and 40.8 nM and 29.8 nM and 31 nM | – | 48.2 nM and 116 nM and 16.6 nM | 12 ± 4 nM | 5 ± 1 nM | 11.4 nM and 10.4 nM and 9.77 nM and 18.8 nM | 45 ± 51 nM | 4.73 nM and 4.97 nM and 4.9 nM and 3.53 nM | 72 ± 7% | 76 ± 10% | remarkable selectivity | – | –
5 | Cc1ncsc1-c1ccc([C@H](CC[C@@H](C)CCN2CCC(c3ccc4c(c3)n(C3CCCC3)c3nc(=O)c5c(Br)cccc5n43)CC2)NC(=O)[C@@H]2C[C@@H](O)CN2C(=O)[C@@H](NC(=O)C2(F)CC2)C(C)(C)C)cc1 [compound 29] | 85 ± 25 nM | 29.4 nM and 32.4 nM and 32.3 nM and 32.6 nM | 32 ± 2 nM | 2.66 nM and 3.59 nM and 4.13 nM | 66.7 nM and 78.8 nM and 115 nM | 5 ± 2 nM | 4.01 nM and 5.99 nM and 2.49 nM and 8.59 nM and 7.01 nM | 2 ± 1 nM | 1 ± 0.1 nM | 1.56 nM and 2.15 nM and 1.32 nM and 3.46 nM | – | 0.877 nM and 0.998 nM and 0.942 nM and 0.753 nM | – | – | – | 74 ± 2% | 84 ± 4%
6 | Cc1ncsc1-c1ccc([C@H](CCC(C)(C)CCN2CCC(c3ccc4c(c3)n(C3CCCC3)c3nc(=O)c5c(Br)cccc5n43)CC2)NC(=O)[C@@H]2C[C@@H](O)CN2C(=O)[C@@H](NC(=O)C2(F)CC2)C(C)(C)C)cc1 [compound 30] | 131 ± 49 nM | 45.6 nM and 53.2 nM and 68.1 nM and 44.6 nM and 46.9 nM | 51 ± 10 nM | 4.23 nM and 6.19 nM and 8.06 nM | 111 nM and 105 nM and 192 nM | 12 ± 6 nM | 19.7 nM and 17.5 nM and 8.43 nM and 7.53 nM | 8 ± 2 nM | 3 ± 1 nM | 6.74 nM and 9.27 nM | – | 2.02 nM and 3.96 nM and 3.27 nM and 3.57 nM | – | – | – | 74 ± 5% | 82 ± 5%
7 | Cc1ncsc1-c1ccc([C@H](CCCCN2CCC(c3ccc4c(c3)n(C3CCCC3)c3nc(=O)c5c(Br)cccc5n43)CC2)NC(=O)[C@@H]2C[C@@H](O)CN2C(=O)[C@@H](NC(=O)C2(F)CC2)C(C)(C)C)cc1 [compound 25] | 36 ± 12 nM | 208 nM and 27.9 nM and 62.3 nM and 29 nM and 29.1 nM and 33.2 nM and 38.8 nM and 39.9 nM and 50.6 nM and 51.7 nM and 46 nM and 34.5 nM and 27.1 nM | 43 ± 48 nM | 2.29 nM and 2.88 nM and 3.31 nM and 5.31 nM and 3.22 nM | 33 nM and 36.4 nM and 33.2 nM and 57.3 nM and 26.6 nM | 7 ± 4 nM | 11.9 nM and 5.25 nM and 6.51 nM | 3 ± 1 nM | 3 ± 1 nM | 4.26 nM and 1.82 nM and 3.89 nM and 3.46 nM | – | 2 nM and 2.63 nM and 3.33 nM | – | – | – | 66 ± 5% | 80 ± 6%
8 | Cc1ncsc1-c1ccc([C@H](COCCN2CCC(c3ccc4c(c3)n(C3CCCC3)c3nc(=O)c5c(Br)cccc5n43)CC2)NC(=O)[C@@H]2C[C@@H](O)CN2C(=O)[C@@H](NC(=O)C2(N(C)C)CC2)C(C)(C)C)cc1 [compound 26] | 22 ± 5 nM | 13.6 nM and 14.3 nM and 15.5 nM and 15.9 nM and 16.4 nM and 11.2 nM and 10.2 nM and 21.5 nM and 22 nM and 6 nM and 9.26 nM | 13 ± 5 nM | 4.07 nM and 5.33 nM and 4.96 nM and 5.58 nM and 10.7 nM and 6.01 nM and 6.73 nM and 6.09 nM | 22.2 nM and 18.2 nM and 23.4 nM and 24.5 nM and 15.7 nM and 23.5 nM and 21.5 nM and 14.9 nM and 30.3 nM and 26.7 nM | – | 52.4 nM and 57.1 nM and 12.2 nM | 12 ± 7 nM | 6 ± 2 nM | 13.4 nM and 7.13 nM and 22 nM and 9.24 nM | 33 ± 25 nM | 3.5 nM and 6.73 nM and 7.09 nM | 77 ± 3% | 82 ± 4% | – | – | –
